Target: T1, human PRMT6 (Homo sapiens, UniProt Q96LA8)
T1 construct: Flag-PRMT6-His was eluted with 200 ug/ml FLAG peptide in the same buffer; made in house; host or cells: HEK 293F cells (BacMam baculovirus)
Experiment: PRMT6 Biochemical Assay
Settings: biochemical evaluation, peptide substrate
From the text: S-adenosylmethionine (SAM), S-adenosylhomocysteine (SAH), bicine, Tween20, dimethylsulfoxide (DMSO), bovine skin gelatin (BSG), sodium butyrate and Tris(2-carboxyethyl)phosphine hydrochloride solution (TCEP) were purchased from Sigma-Aldrich at the highest level of purity possible. ^3H-SAM was purchase from American Radiolabeled Chemicals with a specific activity of 80 Ci/mmol. 384-well streptavidin Flashplates were purchased from PerkinElmer.
Peptide representative of human histone H4 residues 36-50 was synthesized with an N-terminal linker-affinity tag motif and a C-terminal amide cap by 21st Century Biochemicals. The peptide was purified by high-performance liquid chromatography (HPLC) to greater than 95% purity and confirmed by liquid chromatography mass spectrometry (LC-MS). The sequence was Biot-Ahx-[…]-amide and contained a monomethylated lysine at position 44 (SEQ ID NO.: 5). […]
The assays were all performed in a buffer consisting of 20 mM Bicine (pH=7.6), 1 mM TCEP, 0.005% BSG, and 0.002% Tween 20, prepared on the day of use. […] The plates were then read in a PerkinElmer TopCount plate reader to measure the quantity of ^3H-labeled peptide bound to the Flashplate surface, measured as disintegrations per minute (dpm) or alternatively, referred to as counts per minute (cpm). […]

T1 sequence (Q96LA8 with tags, fused parts or gaps): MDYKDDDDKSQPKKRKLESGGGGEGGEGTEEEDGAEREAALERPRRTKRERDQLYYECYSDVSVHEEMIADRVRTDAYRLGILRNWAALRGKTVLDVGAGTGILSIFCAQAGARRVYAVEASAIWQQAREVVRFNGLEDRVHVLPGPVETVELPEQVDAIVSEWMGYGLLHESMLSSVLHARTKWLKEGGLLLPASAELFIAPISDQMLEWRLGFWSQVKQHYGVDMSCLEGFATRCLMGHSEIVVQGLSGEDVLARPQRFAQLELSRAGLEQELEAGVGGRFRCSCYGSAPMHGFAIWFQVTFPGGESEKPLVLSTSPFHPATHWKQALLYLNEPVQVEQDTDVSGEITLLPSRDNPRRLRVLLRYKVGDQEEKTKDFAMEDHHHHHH

CN(CCN)Cc1n[nH]c2cccc(OCc3ccccc3)c12 [Compound 1]
IC50: ≤ 100 nM
